Columns and labels:
DLK = target: T1, DLK (Homo sapiens, UniProt Q12852); assay: DLK biochemical assay (TR-FRET, MKK7 phosphorylation)
T1 construct: 10 nM DLK, catalytic domain, Carna Biosiences; purchased Carna Biosciences ('Carna Biosiences' [sic])
T1 sequence (Q12852 125-366 limits assumed): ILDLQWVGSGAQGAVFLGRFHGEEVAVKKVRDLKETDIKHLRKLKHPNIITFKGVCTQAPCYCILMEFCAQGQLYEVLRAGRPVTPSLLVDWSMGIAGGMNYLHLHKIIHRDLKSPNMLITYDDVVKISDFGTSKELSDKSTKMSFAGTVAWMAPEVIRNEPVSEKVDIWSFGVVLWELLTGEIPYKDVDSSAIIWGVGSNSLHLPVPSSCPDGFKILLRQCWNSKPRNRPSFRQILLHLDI
Protocol: (§1) DLK assay is a biochemical assay format designed to screen for inhibitors of DLK. Enzymatic activity of DLK is measured by monitoring phosphorylation of the physiological substrate MKK7 (MAP2K7, Dual specificity mitogen-activated protein kinase kinase 7). Phosphorylation is detected by a TR-FRET system whereby His-tagged MKK7 is labeled by a XL665-labeled anti-His antibody (FRET acceptor, emission 665 nm). DLK phosphorylates MKK7 at T275/S277, which is detected by an Eu-labeled anti-phospho-MKK7 (T275/S277) antibody (FRET donor, excitation 340 nm). Phosphorylation of MKK7 results in an increased TR-FRET signal (Ratio XL665-channel/Eu-channel) and inhibition of enzymatic activity of DLK decreases the TR-FRET signal.
Assay Protocol for 1536 MTP format: test compounds are predispensed (60 nl) in test plates; +3 μl DLK solution (10 nM DLK, catalytic domain, Carna Biosiences, 0.6 mM DTT in assay buffer); +2 μl substrate solution (15 nM MKK7, LDB; 60 μM ATP; 0.4 mM DTT in assay buffer); 90 min incubation at RT; +2 μl detection mix (5 nM XL665-labeled anti-His antibody, Cisbio; 0.1 nM Eu-labeled anti-phospho-MKK7 (T275/S277), Cisbio/Millipore in detection buffer); 16 h incubation at 37° C.; endpoint measurement BMG (HTRF).
(§2) Assay Protocol for 384 low volume MTP format: 1 μl of test compounds is pipetted into test plate; +5 μl DLK solution (10 nM DLK, catalytic domain, Carna Biosiences in assay buffer); +5 μl substrate solution (15 nM MKK7, LDB; 60 μM ATP, in assay buffer); 90 min incubation at RT; +9 μl detection mix (20 nM XL665-labeled anti-His antibody, Cisbio; 0.4 nM Eu-labeled anti-phospho-MKK7 (T275/S277), Cisbio/Millipore in detection buffer); 16 h incubation at 4° C.; endpoint measurement BMG (HTRF).
(§3) All indicated concentrations final concentrations.
(§4) Assay buffer (384 format): 50 mM Hepes pH 7.5, 10 mM MgCl2, 1 mM EGTA, 1 mM DTT, 0.01% Triton X-100, 0.01% BSA, 1:500 Smart Block.
(§5) Detection buffer: 25 mM Tris/HCl pH 7.5, 100 mM EDTA, 100 mM NaCl, 200 mM KF, 0.01% Tween 20, 1:500 Smart Block.

LZK = target: T2, LZK (Homo sapiens, UniProt O43283); assay: LZK biochemical assay (TR-FRET, MKK7 phosphorylation)
T2 construct: 10 nM LZK, catalytic domain, Carna Biosiences in assay buffer; purchased Carna Biosciences ('Carna Biosiences' [sic])
T2 sequence (O43283 168-409 limits assumed): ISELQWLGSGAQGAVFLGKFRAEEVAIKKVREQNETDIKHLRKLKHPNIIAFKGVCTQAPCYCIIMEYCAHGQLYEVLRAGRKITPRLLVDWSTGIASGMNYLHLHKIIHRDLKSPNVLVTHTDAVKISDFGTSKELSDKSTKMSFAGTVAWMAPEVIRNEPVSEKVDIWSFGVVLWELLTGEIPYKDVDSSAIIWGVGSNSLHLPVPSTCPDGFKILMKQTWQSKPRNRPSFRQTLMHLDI
Protocol: as §1, with “LZK” for “DLK”, “LZK.” for “DLK.”, “T275/S277” for “T275/S277,”
as §2, with “compound” for “compounds”, “LZK” for “DLK”, “LZK,” for “DLK,”, “15” for “60”, “+5” for “+9”, “32°” for “4°”
as §3, §4, §5

SMILES: Nc1nc2cc(-c3cnn(Cc4ccccc4)c3)cc(-c3cnn(C(F)F)c3)n2n1 [II-121, 7-(1-Benzyl-1H-pyrazol-4-yl)-5-[1-(difluoromethyl)-1H-pyrazol-4-yl][1,2,4]triazolo[1,5-a]pyridin-2-amine]
- IC50 (DLK): 0.032 µM
- IC50 (LZK): 0.15 µM

SMILES: Nc1nc2cc(-c3cnn(C(c4ccc(C(F)(F)F)nc4)C4CCOCC4)c3)cc(-c3ccnc(C(F)(F)F)c3)n2n1 (single isomer, unassigned) [II-36, 7-(1-{Tetrahydro-2H-pyran-4-yl[6-(trifluoromethyl)pyridin-3-yl]methyl}-1H-pyrazol-4-yl)-5-[2-(trifluoromethyl)pyridin-4-yl][1,2,4]triazolo[1,5-a]pyridin-2-amine]
- IC50 (DLK): 0.0063 µM
- IC50 (LZK): 0.0079 µM

SMILES: CC(C)C(c1ccc(C(F)(F)F)nc1)n1cc(-c2cc(-c3ccc(C(F)(F)F)nc3)c3nc(N)nn3c2)cn1 (single isomer, unassigned) [II-42, 6-(1-{2-Methyl-1-[6-(trifluoromethyl)pyridin-3-yl]propyl}-1H-pyrazol-4-yl)-8-[6-(trifluoromethyl)pyridin-3-yl][1,2,4]triazolo[1,5-a]pyridin-2-amine]
- IC50 (DLK): 0.018 µM
- IC50 (LZK): 0.052 µM

SMILES: CCC(c1ccc(C(F)(F)F)nc1)n1cc(-c2cc(-c3ccc(=O)n(CC(F)(F)F)c3)n3nc(N)nc3c2)cn1 (stereo not shown) [II-188]
- IC50 (DLK): 0.0071 µM
- IC50 (LZK): 0.01 µM

SMILES: CCC(c1ccc(C(F)(F)F)nc1)n1cc(-c2cc(-c3cnn(CC(F)(F)F)c3)c3nc(N)nn3c2)cn1 (racemic) [II-111, 8-[1-(2,2,2-trifluoroethyl)-1H-pyrazol-4-yl]-6-(1-{1-[6-(trifluoromethyl)pyridin-3-yl]propyl}-1H-pyrazol-4-yl)[1,2,4]triazolo[1,5-a]pyridin-2-amine]
- IC50 (DLK): 0.014 µM
- IC50 (LZK): 0.034 µM

SMILES: CC(C)C(c1ccc(C(F)(F)F)nc1)n1cc(-c2cc(-c3ccnc(C(F)(F)F)c3)n3nc(N)nc3c2)cn1 (racemic) [II-28, 7-(1-{2-Methyl-1-[6-(trifluoromethyl)pyridin-3-yl]propyl}-1H-pyrazol-4-yl)-5-[2-(trifluoromethyl)pyridin-4-yl][1,2,4]triazolo[1,5-a]pyridin-2-amine]
- IC50 (DLK): 0.028 µM
- IC50 (LZK): 0.027 µM

SMILES: Nc1nc2cc(-c3cnn(C(c4ccc(C(F)(F)F)nc4)C4CCOCC4)c3)cc(-c3cn(CC(F)(F)F)c(=O)cn3)n2n1 (single isomer, unassigned) [II-195, 5-[2-Amino-7-(1-{tetrahydro-2H-pyran-4-yl[6-(trifluoromethyl)pyridin-3-yl]methyl}-1H-pyrazol-4-yl)[1,2,4]triazolo[1,5-a]pyridin-5-yl]-1-(2,2,2-trifluoroethyl)pyrazin-2(1H)-one]
- IC50 (DLK): 0.0011 µM
- IC50 (LZK): 0.0052 µM

SMILES: Nc1nc2c(-c3ccc(=O)n(CC(F)(F)F)c3)cc(-c3cnn([C@H](c4ccc(C(F)(F)F)nc4)C4CCOCC4)c3)cn2n1 [II-162]
- IC50 (DLK): 0.0008 µM
- IC50 (LZK): 0.002 µM

SMILES: Nc1nc2cc(-c3cnn(C(c4ccc(C(F)(F)F)nc4)C4CCOCC4)c3)cc(-c3ccc(=O)n(CC(F)(F)F)c3)n2n1 (single isomer, unassigned) [II-192, 5-[2-Amino-7-(1-{tetrahydro-2H-pyran-4-yl[6-(trifluoromethyl)pyridin-3-yl]methyl}-1H-pyrazol-4-yl)[1,2,4]triazolo[1,5-a]pyridin-5-yl]-1-(2,2,2-trifluoroethyl)pyridin-2(1H)-one]
- IC50 (DLK): 0.0013 µM
- IC50 (LZK): 0.0022 µM

SMILES: CCC(c1ccc(OC(F)(F)F)nc1)n1cc(-c2cc(-c3cnn(CC(F)(F)F)c3)n3nc(N)nc3c2)cn1 (single isomer, unassigned) [II-115, 5-[1-(2,2,2-Trifluoroethyl)-1H-pyrazol-4-yl]-7-(1-{1-[6-(trifluoromethoxy)pyridin-3-yl]propyl}-1H-pyrazol-4-yl)[1,2,4]triazolo[1,5-a]pyridin-2-amine]
- IC50 (DLK): 0.067 µM
- IC50 (LZK): 0.138 µM

SMILES: CC[C@@H](c1ccc(C(F)(F)F)nc1)n1cc(-c2cc(-c3cnn(CC(F)(F)F)c3)c3nc(N)nn3c2)cn1 (single isomer, unassigned) [II-112, 8-[1-(2,2,2-trifluoroethyl)-1H-pyrazol-4-yl]-6-(1-{1-[6-(trifluoromethyl)pyridin-3-yl]propyl}-1H-pyrazol-4-yl)[1,2,4]triazolo[1,5-a]pyridin-2-amine]
- IC50 (DLK): 0.0047 µM
- IC50 (LZK): 0.017 µM

SMILES: CCC(c1ccc(OC(F)(F)F)nc1)n1cc(-c2cc(-c3ccc(=O)n(CC(F)(F)F)c3)c3nc(N)nn3c2)cn1 (stereo not shown) [II-163]
- IC50 (DLK): 0.0049 µM
- IC50 (LZK): 0.025 µM

SMILES: Nc1nc2cc(-c3cnn(C(c4ccccc4)C4CCOCC4)c3)cc(-c3cnn(CC(F)(F)F)c3)n2n1 (single isomer, unassigned) [II-148, 7-{1-[Phenyl(tetrahydro-2H-pyran-4-yl)methyl]-1H-pyrazol-4-yl}-5-[1-(2,2,2-trifluoroethyl)-1H-pyrazol-4-yl][1,2,4]triazolo[1,5-a]pyridin-2-amine]
- IC50 (DLK): 0.022 µM
- IC50 (LZK): 0.17 µM

SMILES: CN(C)c1cccc(-c2cc(-c3cnn(C(c4ccc(C(F)(F)F)nc4)C4CCOCC4)c3)cn3nc(N)nc23)c1 (single isomer, unassigned) [II-23, 8-[3-(Dimethylamino)phenyl]-6-(1-{tetrahydro-2H-pyran-4-yl[6-(trifluoromethyl)pyridin-3-yl]methyl}-1H-pyrazol-4-yl)[1,2,4]triazolo[1,5-a]pyridin-2-amine]
- IC50 (DLK): 0.0045 µM
- IC50 (LZK): 0.0092 µM

SMILES: CCC(c1ccc(C(F)(F)F)nc1)n1cc(-c2cc(-c3ccc(C(F)(F)F)nc3)c3nc(N)nn3c2)cn1 (racemic) [II-37, 8-[6-(Trifluoromethyl)pyridin-3-yl]-6-(1-{1-[6-(trifluoromethyl)pyridin-3-yl]propyl}-1H-pyrazol-4-yl)[1,2,4]triazolo[1,5-a]pyridin-2-amine]
- IC50 (DLK): 0.046 µM
- IC50 (LZK): 0.074 µM

SMILES: CC(C)C(c1ccc(C(F)(F)F)nc1)n1cc(-c2cc(-c3ccnc(C(F)(F)F)c3)n3nc(N)nc3c2)cn1 (single isomer, unassigned) [II-30, 7-(1-{2-Methyl-1-[6-(trifluoromethyl)pyridin-3-yl]propyl}-1H-pyrazol-4-yl)-5-[2-(trifluoromethyl)pyridin-4-yl][1,2,4]triazolo[1,5-a]pyridin-2-amine]
- IC50 (DLK): 0.0087 µM
- IC50 (LZK): 0.0067 µM

SMILES: CCC(c1ccc(C(F)(F)F)nc1)n1cc(-c2cc(-c3cc(CO)ccc3Cl)c3nc(N)nn3c2)cn1 (single isomer, unassigned) [II-2, {3-[2-Amino-6-(1-{1-[6-(trifluoromethyl)pyridin-3-yl]propyl}-1H-pyrazol-4-yl)[1,2,4]triazolo[1,5-a]pyridin-8-yl]-4-chlorophenyl}methanol]
- IC50 (DLK): 0.17 µM
- IC50 (LZK): 0.03 µM

From patent US20230086702A1, “SUBSTITUTED 2-AMINO-PYRAZOLYL-[1,2,4]TRIAZOLO[1,5A]PYRIDINE DERIVATIVES AND USE THEREOF” (The Johns Hopkins University, priority 2019, published 2023)
